One may read the EC50 as the concentration that produces a half-maximal response.

The target of this assay is T1, Protein mono-ADP-ribosyltransferase TIPARP (Homo sapiens, UniProt Q7Z3E1).
T1 sequence (Q7Z3E1 whole entry): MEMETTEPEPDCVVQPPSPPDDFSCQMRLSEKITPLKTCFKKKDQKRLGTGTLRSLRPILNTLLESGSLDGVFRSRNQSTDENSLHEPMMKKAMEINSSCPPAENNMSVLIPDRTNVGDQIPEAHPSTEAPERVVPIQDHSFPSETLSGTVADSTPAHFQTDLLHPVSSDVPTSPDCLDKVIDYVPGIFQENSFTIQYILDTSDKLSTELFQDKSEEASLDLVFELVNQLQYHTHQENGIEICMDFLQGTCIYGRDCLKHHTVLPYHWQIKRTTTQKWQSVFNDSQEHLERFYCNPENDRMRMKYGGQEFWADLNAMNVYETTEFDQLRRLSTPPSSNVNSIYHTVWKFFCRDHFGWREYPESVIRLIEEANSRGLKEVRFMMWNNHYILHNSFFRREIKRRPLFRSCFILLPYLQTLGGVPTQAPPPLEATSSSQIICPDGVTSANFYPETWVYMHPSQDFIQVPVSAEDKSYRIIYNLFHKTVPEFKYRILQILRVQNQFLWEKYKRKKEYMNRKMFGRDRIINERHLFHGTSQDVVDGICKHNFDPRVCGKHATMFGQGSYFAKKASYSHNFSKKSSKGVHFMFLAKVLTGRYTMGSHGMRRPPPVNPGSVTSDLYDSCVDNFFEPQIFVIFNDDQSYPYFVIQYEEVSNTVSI
The assay is described as follows: Inhibition of PARP7 in human NCI-H1373 cells assessed as increase in STAT1 phosphorylation at Tyr701 residue incubated for 48 hrs by LANCE Ultra TR-FRET assay. It counts as cell-based. In general terms: In TR-FRET formats the signal depends on donor and acceptor labels being close together.
Regarding `O=C([C@@H](O)CCNc1cc(C(F)(F)F)c(=O)[nH]n1)N1CCN(c2ncc(C(F)(F)F)cn2)CC1`, the EC50 is 21.3 nM.

Regarding `O=C(CC[C@@H]1CCCCN1c1cc(C(F)(F)F)c(=O)[nH]n1)N1CCN(c2ncc(C(F)(F)F)cn2)CC1`, the EC50 is 172 nM.

With `O=C(CCCCc1cc(C(F)(F)F)c(=O)[nH]n1)N1CCN(c2ncc(C(F)(F)F)cn2)CC1`, the EC50 is 60.6 nM.

For `CN(CCCC(=O)N1CCN(c2ncc(C(F)(F)F)cn2)CC1)c1cc(C(F)(F)F)c(=O)[nH]n1`, the EC50 came to 75.6 nM.

`O=C(CCCN(c1ccccc1)c1cc(C(F)(F)F)c(=O)[nH]n1)N1CCN(c2ncc(C(F)(F)F)cn2)CC1`: the EC50 worked out at 74.1 nM.

Consider `CCN(CCCC(=O)N1CCN(c2ncc(C(F)(F)F)cn2)CC1)c1cc(C(F)(F)F)c(=O)[nH]n1`, for which the EC50 stood at 51.6 nM.

For `O=C(CC[C@@H]1CCCN1c1cc(C(F)(F)F)c(=O)[nH]n1)N1CCN(c2ncc(C(F)(F)F)cn2)CC1`, the EC50 worked out at 9.31 nM.

As for `O=C(CCC1Cc2ccccc2N1c1cc(C(F)(F)F)c(=O)[nH]n1)N1CCN(c2ncc(C(F)(F)F)cn2)CC1` (centres undefined), the concentration giving a half-maximal response (EC50) was found to be 179 nM.

In the case of `O=C(CCCNc1cc(C(F)(F)F)c(=O)[nH]n1)N1CCN(c2ncc(C(F)(F)F)cn2)CC1`, the EC50 worked out at 71.9 nM.
